According to US7595300B2, “7-quinolyl ketolide antibacterial agents” (priority 2005, dated 2009):
Read-outs that look alike come from different tables or passages of the source.

Key:
[1] = test system: Streptococcus pneumoniae ATCC 6303; assay: rat lower respiratory tract infection (lung pneumonia) model; type: in vivo; settings: for Log CFU/g (avg, n = 8): rat lungs, 12 hours after the last dose
Protocol: The in vivo efficacy of compounds (II) and (III) were evaluated in a rat lower respiratory tract infection model. Groups of 8 rats were infected intratracheally with 0.5 mL containing 10^6 CFUs of Streptococcus pneumoniae ATCC 6303 in 5% hog gastric mucin. Compounds dissolved in ethanol were administered by oral gavage daily over 3 days starting 18 hours post-inoculation. Lungs were aseptically removed from survivors 12 hours after the last dose and examined for visible signs of infection, then homogenized in sterile PBS and plated for determination of CFUs by log plating on Columbia agar-nalidixic acid plates.

anesthetized rats = assay: Cardiovascular safety, QT interval in anesthetized rats, i.v. bolus; type: in vivo, rat; settings: rat
Protocol: Total doses of drug (0.47, 0.94, 1.88, 3.75, 7.5, and 15 mg/kg) or equivalent volumes of vehicle were administered incrementally as an i.v. bolus to groups of 6 anesthetized rats or guinea pigs at 0, 15, 30, 45, 60, and 75 minutes. Hemodynamic parameters including mean arterial pressure (MAP) and heart rate (HR), and ECG parameters (QT and PR intervals and QRS duration) were recorded. For the rat, injection of vehicle gave a 16% increase in QT interval over baseline. For the guinea pig, injection of vehicle gave a 3% increase in QT interval over baseline.

in vivo = settings: male, beagle, dog, iv; for AUC: AUCtot
Protocol: The dosing route was an intravenous infusion jugular vein access). The infusion was accomplished using a CADD Prizm® ambulatory infusion pump attached to a jacket worn by the dog. The dose duration for the intravenous infusion was 30 min for all doses administered, except the last dose (30 mg/kg) where the infusion period was extended to 45 min to accommodate the larger dose volume required for this dose. The vehicle dose and diluent for the test article was 0.05-M sodium citrate in sterile water for injection.
There was one treatment group of four non-naïve dogs and the study was comprised of both pharmacokinetic and telemetry phases, as summarized in the dose administration table for compound (III) (Table 16) below. At least one week was given between dosings to allow clearance of the drug.
For the pharmacokinetic (PK) phase, the blood collection intervals were: predose, 10, 20, 30, (end dose time), 35, 45, 60, 90, 150, 270, 390, 510, 1440, and 2880 min relative to the start of the infusion. Whole blood (˜2 mL) was collected into Vacutainerss' (BD, Franklin, N.J.) containing sodium heparin as the anticoagulant agent. Blood samples were centrifuged at a speed of 3000 rpm, a temperature of 4° C. and a run time of 10 min. Plasma samples were transferred to amber glass vials and analyzed by LC/MS/MS to determine drug concentrations.

human hepG2 hepatocytes = assay: In vitro hepatotoxicity, resazurin and Nile Red staining; type: cell-based; settings: 100 μM
Protocol: In one experiment, hepatotoxicity was estimated by overnight incubation of compounds at 3, 10, 30, 100, or 300 μM with cultured rat or human hepG2 hepatocytes, followed by staining of the cells with resazurin to measure viability or with Nile Red to measure steatosis. The minimal drug concentration at which changes in dye binding were observed was noted as the minimal effective concentration. The compound of formula (VIII) wherein Z=3-quinolyl affected […] and steatosis in human HepG2 hepatocytes at 30 μM.

[2] = test system: cryopreserved human hepatocytes; settings: 4 h
Excerpt: In a second experiment, the hepatotoxicity of compound (III) was estimated using cryopreserved human hepatocytes pooled from four donors, measuring leakage of cellular lactate dehydrogenase (LDH). Each donor was selected for the study based on the activity of cytochrome P450 (phase I) and uridine diphosphoglucuronosyl transferases (phase II). Hepatocytes were initially prepared from human livers by collagenase perfusion and subsequently cryogenically frozen. Viable cryopreserved hepatocytes were enriched in accordance with BD Biosciences Discovery Labware SOP HP-10. Hepatocytes were rapidly thawed, pooled and incubated in Williams' E medium at a density of 2×10^6 cells/ml at 37° C. in an incubator for 30 min. After incubation, the viable cells were separated with 24% Percoll gradient and resuspended in WME at a density of 1×10^6 cells/ml. Initial viability was determined by trypan blue exclusion. Hepatocytes were incubated in a 24-well plate and each well contained 0.25×10^6 cells in 0.5 ml of WME medium. Three wells were used for determination of total LDH activity (cells+media) and the background activity (incubation media only) at the 0 time point. Briefly, a 100 μl aliquot of cell suspensions from these wells was immediately taken and rapidly centrifuged at 14,000 rpm for 15 seconds. The supernatants were transferred to microcentrifuge tubes and stored at ≦4° C. for measurement of LDH activity present in medium at the 0 time point. Another 100 μl aliquot of cell suspension from same wells was removed, mixed with 100 μl of 0.4% Triton and stored at ≦4° C. for measurement of total LDH activity.
Hepatocytes in other wells were incubated with test article at the concentrations of 200, 67, 22, 7.4, 2.5 and 0.82 μM. […] Hepatocytes were exposed to the test substance and the positive control for 4 hours. After incubation, 100 μl aliquots of cell suspensions were taken and rapidly centrifuged at 14,000 rpm for 15 seconds. The supernatants were transferred to microcentrifuge tubes and stored at ≦4° C. for measurement of LDH activity in incubation medium.
LDH activity in both total (medium+cells) and medium was determined by monitoring the enzymatic formation of NADH from NAD^+ in the presence of L-lactic acid. Briefly, post-centrifugation supernatants were diluted 1:40 with phosphate-buffered saline (pH 7.4). A 100 μl aliquot was mixed with 100 μl LDH reagent containing 7.5 mM NAD^+, 50 mM L-lactic acid in 250 mM Tris-HCl buffer (pH 8.9) in a 96-well plate. The increase in fluorescence due to the formation of NADH were kinetically monitored at Ext. 360 nm, Em. 460 nm, using a Fluorescence plate reader. The percent LDH leakage from cells was calculated by comparing incubation medium values with total LDH activity (see Equation below). The cell viability at each concentration of test articles was reported. % LDH leakage=(LDH activity in medium sample/total LDH activity)*100 The data are summarized in Table 17.

Compound: CC1CC(N(C)C)C(O)C(O[C@@H]2[C@@H](C)C(=O)[C@](C)(F)C(=O)O[C@H](CCF)[C@@]3(C)OC(=O)N[C@@H]3[C@@H](C)C(=O)[C@H](C)C[C@@]2(C)OC/C=C/c2ccc3cccnc3c2)O1 (stereo partly drawn) [Compound (III), 6-O-(1-(7-quinolyl)-3-propenyl)-11-amino-11-deoxy-3-(descladinosyl)-3-oxo-2,15-difluoroerythromycin A-11,12-cyclic carbamate]
- Log CFU/g (avg, n = 8) ([1]; 0.5 mg/kg oral gavage daily over 3 days): 3.9 Log CFU/g
- Log CFU/g (avg, n = 8) ([1]; 2.5 mg/kg oral gavage daily over 3 days): 3.0 Log CFU/g
- % survivors ([1]; rat, 0.5 mg/kg oral gavage daily over 3 days): 100%
- % survivors ([1]; rat, 2.5 mg/kg oral gavage daily over 3 days): 100%
- reducing the bacterial load in the rat lungs and increasing survival relative to control animals ([1]; rat, oral gavage daily over 3 days): efficacious
- effect on the QT interval in the rat (anesthetized rats): did not prolong the QT interval
- Tmax (in vivo; 11 mg/kg): 0.46 ± 0.08 h
- half-life (in vivo; 11 mg/kg): 5.36 ± 0.4 h
- AUC (in vivo; 11 mg/kg): 33900 ± 3190 ng·h/mL
- Cmax (in vivo; 11 mg/kg, Mean Cmax): 6000 ± 1130 ng/mL
- AUCtot (in vivo; 15 mg/kg): 36047 ± 22104 ng·h/mL
- mean Cmax (in vivo; 15 mg/kg): 6206 ± 3144 ng/mL
- AUC (in vivo; 15 mg/kg): 43900 ± 23100 ng·h/mL
- Cmax (in vivo; 15 mg/kg, mean Cmax): 7520 ± 3310 ng/mL
- effects on metabolic stability and steatosis (human hepG2 hepatocytes): No effects
- LDH leakage (%) ([2]; 0.82 μM): 6.1 ± 0.63%
- Viability (%) ([2]; 0.82 μM): 94 ± 0.63%
- LDH leakage (%) ([2]; 2.5 μM): 3.9 ± 2.8%
- Viability (%) ([2]; 2.5 μM): 96 ± 2.8%
- LDH leakage (%) ([2]; 7.4 μM): 10 ± 2.9%
- Viability (%) ([2]; 7.4 μM): 90 ± 2.9%
- LDH leakage (%) ([2]; 22 μM): 12 ± 0.74%
- Viability (%) ([2]; 22 μM): 88 ± 0.74%
- LDH leakage (%) ([2]; 67 μM): 6.7 ± 1.3%
- Viability (%) ([2]; 67 μM): 93 ± 1.3%
- LDH leakage (%) ([2]; 200 μM): 7.6 ± 4.2%
- Viability (%) ([2]; 200 μM): 92 ± 4.2%
